16 compounds from ChEMBL document CHEMBL4346730 (Bioorg Med Chem, 2019) can be followed below.

≈ marks a conversion by molar mass, not a printed value.

Data set [1] can be described thus: Inhibition of bovine corpus striatum PDE10A using [3H]cAMP or [3H]cGMP as substrate preincubated for 5 mins followed by substrate addition and measured after 30 mins by liquid scintillation counting method. Further details: species or system Bos taurus.
Another data set has as its target hERG (KCNH2) (Homo sapiens, UniProt Q12809). Description: Inhibition of human ERG at 1 uM relative to control.
Data set [2] can be described thus: Solubility in artificial interstitial fluid at pH 5 by HPLC analysis. It counts as physicochemical.
Data set [3] can be described thus: Chromatographic hydrophobicity index, log D of the compound at pH 7.4 by reverse-phase HPLC analysis. It counts as physicochemical. The settings on record: buffer.
A further data set has as its system Rattus norvegicus. Description: Antipsychotic activity in po dosed Wistar rat assessed as inhibition of electric stimulation-induced conditioned avoidance responses measured up to 6 days. The settings on record: 144 h, read-out: ID50 (the source's name). Type of data set: functional.
Data set [4] has as its target cGMP-specific 3',5'-cyclic phosphodiesterase (Homo sapiens, UniProt O76074). Description: Inhibition of PDE5A (unknown origin).
Data set [5] can be described thus: Clearance in Wistar rat at 0.3 mg/kg, iv. The settings on record: in vivo.
A further data set addresses Phosphodiesterase 6. Description: Inhibition of PDE6 (unknown origin). Type of data set: protein assay, Homo sapiens.
Data set [6] can be described thus: Oral bioavailability in Wistar rat at 3 mg/kg. Particulars: in vivo. Type of data set: ADME, organism-based.
Another data set has as its target Phosphodiesterase 4 (Homo sapiens, UniProt P27815+Q08499+Q07343+Q08493). Description: Inhibition of PDE4 (unknown origin). Type of data set: protein assay.
The nature of data set [7]: Half life in Wistar rat at 0.3 mg/kg, iv. Type of data set: ADME, organism-based. The settings on record: in vivo.
Data set [8] deals with cAMP and cAMP-inhibited cGMP 3',5'-cyclic phosphodiesterase 10A (Homo sapiens, UniProt Q9Y233). Description: Inhibition of human N-terminal FLAG-tagged PDE10A (1 to 90 residues) expressed in using African green monkey COS7 cells using [3H]cAMP or [3H]cGMP as substrate preincubated for 5 mins followed by substrate addition and measured after 30 mins by liquid scintillation counting method.
cAMP and cAMP-inhibited cGMP 3',5'-cyclic phosphodiesterase 10A, sequence (Q9Y233 whole entry, the tested form may be a part): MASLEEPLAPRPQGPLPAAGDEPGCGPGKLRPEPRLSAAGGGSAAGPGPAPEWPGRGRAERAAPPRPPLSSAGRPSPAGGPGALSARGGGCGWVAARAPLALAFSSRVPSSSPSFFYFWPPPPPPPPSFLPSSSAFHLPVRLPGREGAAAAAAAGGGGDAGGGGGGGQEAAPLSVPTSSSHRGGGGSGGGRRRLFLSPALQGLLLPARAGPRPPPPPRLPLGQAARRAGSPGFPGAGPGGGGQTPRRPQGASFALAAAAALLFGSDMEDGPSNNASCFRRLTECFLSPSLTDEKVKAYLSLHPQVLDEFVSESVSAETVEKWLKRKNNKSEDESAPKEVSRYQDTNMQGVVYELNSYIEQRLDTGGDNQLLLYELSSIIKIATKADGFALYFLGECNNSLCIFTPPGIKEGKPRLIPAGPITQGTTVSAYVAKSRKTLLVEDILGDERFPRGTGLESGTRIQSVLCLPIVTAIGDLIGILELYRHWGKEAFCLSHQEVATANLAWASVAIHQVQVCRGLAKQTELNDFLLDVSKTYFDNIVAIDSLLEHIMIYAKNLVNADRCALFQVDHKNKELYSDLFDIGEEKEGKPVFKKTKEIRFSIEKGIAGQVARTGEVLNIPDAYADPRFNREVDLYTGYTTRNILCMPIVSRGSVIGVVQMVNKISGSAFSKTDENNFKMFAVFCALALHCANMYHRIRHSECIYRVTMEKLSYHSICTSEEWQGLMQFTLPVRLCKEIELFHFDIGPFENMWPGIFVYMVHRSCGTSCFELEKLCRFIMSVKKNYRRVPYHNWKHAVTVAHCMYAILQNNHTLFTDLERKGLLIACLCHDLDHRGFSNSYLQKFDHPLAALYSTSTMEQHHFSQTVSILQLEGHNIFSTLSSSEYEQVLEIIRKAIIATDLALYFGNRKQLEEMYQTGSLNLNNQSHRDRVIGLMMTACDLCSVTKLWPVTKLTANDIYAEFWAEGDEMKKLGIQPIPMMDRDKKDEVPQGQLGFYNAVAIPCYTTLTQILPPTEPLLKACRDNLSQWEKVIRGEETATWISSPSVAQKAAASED

Data set [9] in a line: Unbound brain-to-plasma concentration ratio in Wistar rat at 3 mg/kg, po. Type of data set: ADME, organism-based.
A short description of data set [10]: Volume of distribution at steady state in Wistar rat at 0.3 mg/kg, iv. Particulars: in vivo.
Data set [11] can be described thus: Ratio of IC50 for PDE4 (unknown origin) to IC50 for bovine corpus striatum PDE10A.
The nature of data set [12]: Ratio of IC50 for PDE8A (unknown origin) to IC50 for bovine corpus striatum PDE10A.
A short description of data set [13]: Intrinsic clearance in human liver microsomes. Type of data set: ADME, Microsome. Particulars: read-out: CLH.
The nature of data set [14]: Ratio of IC50 for PDE6 (unknown origin) to IC50 for bovine corpus striatum PDE10A.
Data set [15] can be described thus: Ratio of IC50 for PDE7B (unknown origin) to IC50 for bovine corpus striatum PDE10A.
Data set [16] in a line: Ratio of IC50 for PDE2A (unknown origin) to IC50 for bovine corpus striatum PDE10A.
Data set [17] is described as follows: Ratio of IC50 for PDE9A (unknown origin) to IC50 for bovine corpus striatum PDE10A.
Data set [18] is described as follows: Ratio of IC50 for PDE5A (unknown origin) to IC50 for bovine corpus striatum PDE10A.
A short description of data set [19]: Ratio of IC50 for PDE3A (unknown origin) to IC50 for bovine corpus striatum PDE10A.
Data set [20] can be described thus: Ratio of IC50 for PDE11A (unknown origin) to IC50 for bovine corpus striatum PDE10A.
The nature of data set [21]: Ratio of IC50 for PDE1 (unknown origin) to IC50 for bovine corpus striatum PDE10A.

The IC50 is the midpoint of a concentration-inhibition curve. As usually defined, the inhibition is the drop in the measured response relative to a control, in per cent. By solubility is commonly meant the concentration that dissolves in the medium under given conditions. As a reminder, the bioavailability is dose-corrected exposure relative to a reference, in per cent. For orientation: half-life means how long it takes for the measured level to halve. As usually defined, the Vdss is the apparent volume that relates the amount in the body to the concentration in plasma or blood.

hERG (KCNH2), sequence (Q12809 whole entry): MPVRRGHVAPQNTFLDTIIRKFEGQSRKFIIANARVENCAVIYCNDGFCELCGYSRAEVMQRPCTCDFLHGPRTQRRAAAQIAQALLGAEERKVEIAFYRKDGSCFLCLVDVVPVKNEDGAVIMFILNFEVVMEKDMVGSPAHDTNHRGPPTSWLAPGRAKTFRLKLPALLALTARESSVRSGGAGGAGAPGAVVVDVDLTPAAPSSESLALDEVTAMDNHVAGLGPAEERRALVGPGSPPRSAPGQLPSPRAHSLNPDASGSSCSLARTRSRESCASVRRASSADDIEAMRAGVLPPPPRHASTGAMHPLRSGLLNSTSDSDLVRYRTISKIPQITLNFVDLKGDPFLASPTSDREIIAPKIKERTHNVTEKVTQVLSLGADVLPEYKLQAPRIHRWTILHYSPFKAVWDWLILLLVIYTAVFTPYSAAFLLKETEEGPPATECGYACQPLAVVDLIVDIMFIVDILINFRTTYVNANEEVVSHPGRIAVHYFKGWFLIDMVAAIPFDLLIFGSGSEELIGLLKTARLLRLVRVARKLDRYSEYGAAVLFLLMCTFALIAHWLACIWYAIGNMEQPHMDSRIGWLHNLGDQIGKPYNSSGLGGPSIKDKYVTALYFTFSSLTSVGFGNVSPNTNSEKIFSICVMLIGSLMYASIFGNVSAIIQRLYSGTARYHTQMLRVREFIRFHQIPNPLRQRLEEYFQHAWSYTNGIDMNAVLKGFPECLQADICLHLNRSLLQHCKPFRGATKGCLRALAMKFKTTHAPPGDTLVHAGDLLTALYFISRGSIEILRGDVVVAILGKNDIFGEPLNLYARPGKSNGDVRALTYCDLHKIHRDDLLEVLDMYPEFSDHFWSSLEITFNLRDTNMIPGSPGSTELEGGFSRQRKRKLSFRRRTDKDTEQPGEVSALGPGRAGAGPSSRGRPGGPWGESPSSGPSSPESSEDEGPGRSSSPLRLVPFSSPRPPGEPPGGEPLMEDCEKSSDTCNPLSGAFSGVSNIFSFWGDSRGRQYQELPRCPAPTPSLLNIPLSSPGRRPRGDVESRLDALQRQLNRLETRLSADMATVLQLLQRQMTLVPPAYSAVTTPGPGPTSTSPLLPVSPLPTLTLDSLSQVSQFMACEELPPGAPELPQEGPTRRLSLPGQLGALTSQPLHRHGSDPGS

Compound `Cc1nc2ccccc2nc1-c1cn2nc(N3CCCC3)cc(NC3CCOCC3)c2n1` gave an IC50 in data set [1] of 0.41 nM.

Compound `Cc1ccc2nc(-c3cc4nc(N5CCCC5)cc(NC5CCOCC5)n4n3)c(C)nc2c1.Cl` displayed an IC50 in [1] of 0.46 nM. The same compound yielded an inhibition at 1 µM against hERG (KCNH2) of 80%. The compound further showed a solubility in [2] of 17 µg/mL.

Compound `Cc1nc2ccc(F)cc2nc1-c1cc2nc(N3CCCC3)cc(N[C@H]3CC[C@](C)(O)CC3)n2n1.Cl` gave a half-maximal inhibitory concentration (IC50) in [1] of 0.0088 nM. In data set [3], the CHI is recorded as 3.23. The compound further displayed an inhibition at 1 µM on hERG (KCNH2) of 12%. In [2], this compound showed a solubility of 15 µg/mL.

Turning to `Cc1nc2ccc(F)cc2nc1-c1cc2nc(N3CC[C@@H](F)C3)cc(NCC(C)(C)O)n2n1.Cl`, in the data set with Rattus norvegicus, the ED50 worked out at 0.32 mg/kg. For the same compound, the IC50 in [4] was 437 nM; in data set [1], 0.09 nM; on Phosphodiesterase 6, 561 nM; at Phosphodiesterase 4, 289 nM; in data set [8], 0.062 nM. The compound also registered a CL in data set [5] of 8.77 mL/min/kg. The same compound displayed a CHI in data set [3] of 2.79. In addition, in data set [6], the bioavailability was 43.7%. In addition, at hERG (KCNH2), 1 µM produced 23% inhibition. Also, in data set [7], the half-life was 3.09 h. Besides, the concentration in solution in data set [2] (solubility) came to 118 µg/mL. Also, in data set [9] (brain), the “K(p,uu,brain)” value was found to be 0.5. Further, the Vdss in data set [10] worked out at 2.307 L/kg.

Take `Cc1nc2ccccc2nc1-c1cn2c(NC3CCOCC3)cc(N3CCCC3)nc2n1`: the IC50 in data set [1] turned out to be 71 nM.

Consider `Cc1nc2ccccc2nc1-c1cc2nc(N3CCCC3)cc(NC3CCOCC3)n2n1`, for which the IC50 in [1] is 0.15 nM. On hERG (KCNH2), the inhibition at 1 µM came to 63%. Moreover, the concentration in solution in data set [2] (solubility) was 8.1 µg/mL (≈ 18.9 µM).

On to `Cc1nc2ccc(F)cc2nc1-c1cc2nc(N3CCCC3)cc(NCC(C)(C)O)n2n1.Cl`, for which the half-inhibitory concentration (IC50) in [1] worked out at 0.0081 nM. Besides, in data set [3], the CHI was 3.07. The compound further came in with an inhibition at 1 µM at hERG (KCNH2) of 50%. The solubility in [2] was determined as 8.7 µg/mL.

`Cc1nc2ccc(F)cc2nc1/C=C/c1nc(NC2CCOCC2)cc(N2CCCC2)n1` gave a half-inhibitory concentration (IC50) in data set [1] of 0.14 nM.

Turning to `Cc1nc2cccc(C)c2nc1-c1cc2nc(N3CCCC3)cc(NC3CCOCC3)n2n1.Cl`, inhibition in data set [1] was half-maximal at 0.02 nM (IC50). Also, on hERG (KCNH2), at 1 µM the inhibition was 99%. The solubility in [2] came to 121 µg/mL.

In data set [1], `Cc1ccc2nc(C)c(-c3cc4nc(N5CCCC5)cc(NC5CCOCC5)n4n3)nc2c1.Cl` displayed an IC50 of 0.09 nM. In addition, the CHI in data set [3] came out at 3.4. Also, at 1 µM the inhibition against hERG (KCNH2) was 64%. In data set [2], this compound registered a solubility of more than 1000 µg/mL.

In data set [1], `CO[C@H]1CC[C@H](Nc2cc(N3CCCC3)nc3cc(-c4nc5cc(C)ccc5nc4C)nn23)CC1.Cl` came in with a concentration for half-maximal inhibition (IC50) of 0.08 nM. This compound also returned a CHI in data set [3] of 4.1. Moreover, on hERG (KCNH2), the inhibition at 1 µM was determined as 40%. Further, the concentration in solution in data set [2] (solubility) came to 5.1 µg/mL.

In data set [1], `Cc1nc2ccccc2nc1-c1nc2nc(N3CCCC3)cc(NC3CCOCC3)n2n1` showed an IC50 of 6 nM.

On to `Cc1nc2c(C)cccc2nc1-c1cc2nc(N3CCCC3)cc(NC3CCOCC3)n2n1.Cl`, for which the IC50 in data set [1] turned out to be 0.78 nM. Further, the inhibition at 1 µM against hERG (KCNH2) was found to be 94%. Also, the solubility in data set [2] came out at 32 µg/mL.

In data set [1], `Cc1ccc2nc(C)c(-c3cc4nc(N5CCCC5)cc(N[C@H]5CC[C@H](O)CC5)n4n3)nc2c1.Cl` gave an IC50 of 0.033 nM. In addition, the concentration in solution in [2] (solubility) was 19 µg/mL.

As for `Cc1nc2ccccc2nc1-c1cc2nc(N3CC[C@@H](F)C3)cc(N(C)C3CCOCC3)n2n1.Cl`, the Ratio IC50 in data set [11], in data set [12], in data set [14], in [15], in data set [16] and in data set [17] was more than 1000 throughout. Also, the Ratio IC50 in data set [18], in data set [19], in [20] and in data set [21] was more than 1000 each time. Moreover, in data set [13], the microsomal CLint stood at 127 µL/min/mg. The bioavailability in [6] amounted to 19.2%. In data set [7], this compound showed a half-life of 3.2 h. The compound further displayed a solubility in data set [2] of 4.8 µg/mL. The compound further had an IC50 in [8] of 0.061 nM. In addition, the Kp uu in data set [9] (Wistar, brain and plasma, read-out: K(p,uu,brain)) turned out to be 0.61.

`Cc1ccc2nc(C)c(-c3cc4nc(N5CCCC5)cc(N[C@H]5CC[C@](C)(O)CC5)n4n3)nc2c1.Cl` gave an IC50 in [1] of 0.036 nM. In addition, the CHI in data set [3] was determined as 3.29. Further, at hERG (KCNH2), the inhibition at 1 µM was determined as 29%. In data set [2], this compound showed a solubility of 62 µg/mL.
